Measurements: ChEMBL document CHEMBL1142755, “A macromolecular prodrug of doxorubicin conjugated to a biodegradable cyclotriphosphazene bearing a tetrapeptide” (2005)
Counter-ions that a name gives are not always drawn.

System: L1210
Assay: In vitro cytotoxicity against Leukemia L1210 cell line
Format: functional
Conditions: Mus musculus

Molecule	ED50 [nM]	EC50 (read-out: ED50 (the source's name)) [nM]
CISPLATIN	1000	–
COc1cccc2c1C(=O)c1c(O)c3c(c(O)c1C2=O)C[C@@](O)(C(=O)CO)C[C@@H]3O[C@H]1C[C@H](N)[C@H](O)[C@H](C)O1 [DOXORUBICIN HYDROCHLORIDE]	–	100
